Results as given in ChEMBL document CHEMBL5241094 (J Med Chem, 2021).
≈ marks a conversion by molar mass, not a printed value.

Key:
[1] = Oral bioavailability in C57/BL6 mouse at 30 mg/kg administered as homogeneous suspension in 0.5% methocel/0.25% tween20 in 50 mM acetate buffer (pH 5.5) and measured after 2 hrs by HPLC-MS/MS analysis; assay type: ADME, organism-based; details: in vivo
in vivo [2] = details: C57BL/6, mouse, iv, 0.2 mg/kg
in vivo [3] = details: C57BL/6, mouse, iv, 0.2 mg/kg; remark: listed apart in the source
physchem = details: PBS buffer, pH 7.4

Row | bioavailability [1] [%] | clearance at 2 h (in vivo [2]) [mL/min/kg] | Vd at 2 h (in vivo [3]) [L/kg] | SMILES | solubility at 24 h (physchem) [µg/mL]
1 | 45 | 31.7 | 1.9 | Cc1cc(C#Cc2ccccc2NS(=O)(=O)c2c(C)ccc3cccnc23)cnc1C(=O)O | 384 (≈ 839 µM)
2 |  | 10 | 0.4 | CCOc1ccc(S(=O)(=O)Nc2ccccc2C#Cc2ccc(C(=O)O)nc2)c2ncccc12 | 

Row | SMILES | bioavailability [1] [%] | clearance at 2 h (in vivo [2]) [mL/min/kg] | Vd at 2 h (in vivo [3]) [L/kg] | solubility at 24 h (physchem) [µg/mL]
3 | COc1ccc(S(=O)(=O)Nc2ccccc2C#Cc2ccc(C(=O)O)nc2)c2ncccc12 |  | 6.67 | 0.6 | 445 (≈ 968 µM)
